# Assay results published in ChEMBL document CHEMBL1201862, “PubChem BioAssay data set” (2004).
#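 Compound exposure: 48 hours, 5 concentrations, 96-well plates. Abbreviation: GI50, concentration required for 50% inhibition of growth.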 The source made the active and inactive calls. Rule as the data show it: active = GI50 up to about 1.1 µM and inactive = higher.
# Assays:
# Assay in all cases: NCI-60 cell line screen, 48 h
# [1] = tested on: A498
# [2] = tested on: A549
# [3] = tested on: ACHN
# [4] = tested on: CCRF-CEM
# [5] = tested on: DU-145
# [6] = tested on: EKVX
# [7] = tested on: HCT-15
# [8] = tested on: HOP-62
# [9] = tested on: Hs-578T
# [10] = tested on: M14
# [11] = tested on: MCF7
# [12] = tested on: MDA-MB-231
# [13] = tested on: MDA-MB-435
# [14] = tested on: RPMI-8226
# [15] = tested on: SK-MEL-5
# [16] = tested on: SN12C
# [17] = tested on: TK-10
# [18] = tested on: U-251
# [19] = tested on: UACC-257
Compound,GI50 [1],GI50 [2],GI50 [3],GI50 [4],GI50 [5],GI50 [6],GI50 [7] [µM],GI50 [8],GI50 [9],GI50 [10],GI50 [11],GI50 [12],GI50 [13],GI50 [14],GI50 [15],GI50 [16],GI50 [17],GI50 [18],GI50 [19]
c1ccc(C(c2cccc3c2ccc2ccccc23)C(c2ccccc2)c2cccc3c2ccc2ccccc23)cc1 (stereo not given),> 100 µM (inactive),> 100 µM (inactive),> 100 µM (inactive),> 100 µM (inactive),> 100 µM (inactive),> 100 µM (inactive),> 100,> 100 µM (inactive),> 100 µM (inactive),> 100 µM (inactive),> 100 µM (inactive),> 100 µM (inactive),> 100 µM (inactive),> 100 µM (inactive),> 100 µM (inactive),> 100 µM (inactive),> 100 µM (inactive),> 100 µM (inactive),> 100 µM (inactive)
CN(C)/C=N/S(=O)(=O)c1nn2c(C=O)c(-c3cc4ccccc4oc3=O)nc2s1,22.3 µM (inactive),13 µM (inactive),1.77 µM (inactive),0.276 µM (active),5.56 µM (inactive),10.4 µM (inactive),3.4,> 30.2 µM (inactive),15.6 µM (inactive),7.83 µM (inactive),3.54 µM (inactive),10.7 µM (inactive),5.25 µM (inactive),1.39 µM (inactive),2.77 µM (inactive),5.92 µM (inactive),3.52 µM (inactive),8.09 µM (inactive),11.8 µM (inactive)
CCCCCCCCCCCC(=O)N(CCCCCCCCC)CC(O)C(O)C(OC1OC(CO)C(O)C(O)C1O)C(O)CO (stereo not given),23.1 µM (inactive),21 µM (inactive),17.7 µM (inactive),24 µM (inactive),18.5 µM (inactive),17.3 µM (inactive),16.9,20.6 µM (inactive),35.3 µM (inactive),19.4 µM (inactive),35.8 µM (inactive),26 µM (inactive),17.7 µM (inactive),34 µM (inactive),17.4 µM (inactive),19.1 µM (inactive),15.2 µM (inactive),20.4 µM (inactive),16.9 µM (inactive)
Nc1n[nH]c2nc3ccc(C(F)(F)F)cc3nc12,33 µM (inactive),30.5 µM (inactive),25.1 µM (inactive),17 µM (inactive),16.7 µM (inactive),7.87 µM (inactive),23.1,18.5 µM (inactive),28.5 µM (inactive),33.3 µM (inactive),15.3 µM (inactive),43.6 µM (inactive),64.9 µM (inactive),62.2 µM (inactive),48.9 µM (inactive),26.2 µM (inactive),32.4 µM (inactive),39.5 µM (inactive),21.8 µM (inactive)
C=CC[C@@]1(C(=O)OC)[C@H](Sc2ccccc2)C1(C)C,31.3 µM (inactive),32.5 µM (inactive),> 100 µM (inactive),28.8 µM (inactive),67.9 µM (inactive),33.3 µM (inactive),31,> 100 µM (inactive),55.6 µM (inactive),56.8 µM (inactive),25.9 µM (inactive),69 µM (inactive),30.9 µM (inactive),10.7 µM (inactive),18.7 µM (inactive),21.1 µM (inactive),> 100 µM (inactive),49.2 µM (inactive),34 µM (inactive)
CCOC(=O)NC(Nc1ccc(C(=O)O)cc1)(C(F)(F)F)C(F)(F)F,> 100 µM (inactive),> 100 µM (inactive),> 100 µM (inactive),> 100 µM (inactive),> 100 µM (inactive),> 100 µM (inactive),> 100,> 100 µM (inactive),> 100 µM (inactive),> 100 µM (inactive),> 100 µM (inactive),> 100 µM (inactive),> 100 µM (inactive),> 100 µM (inactive),> 100 µM (inactive),> 100 µM (inactive),> 100 µM (inactive),> 100 µM (inactive),> 100 µM (inactive)
Cc1csc(-c2cn(C)c3c2C(=O)C(=N)C=C3O)n1,12.2 µM (inactive),2.65 µM (inactive),3.71 µM (inactive),5.31 µM (inactive),4.12 µM (inactive),3.37 µM (inactive),6.59,6.89 µM (inactive),3.86 µM (inactive),3.74 µM (inactive),3.27 µM (inactive),51.6 µM (inactive),4.28 µM (inactive),2.83 µM (inactive),1.53 µM (inactive),39.1 µM (inactive),46.1 µM (inactive),37.1 µM (inactive),4.26 µM (inactive)
CCOP1(=O)CC(C)=C(Cl)C(OC)C1 (stereo not given),> 100 µM (inactive),> 100 µM (inactive),> 100 µM (inactive),30.1 µM (inactive),> 100 µM (inactive),> 100 µM (inactive),> 100,> 100 µM (inactive),> 100 µM (inactive),> 100 µM (inactive),> 100 µM (inactive),> 100 µM (inactive),> 100 µM (inactive),> 100 µM (inactive),> 100 µM (inactive),> 100 µM (inactive),> 100 µM (inactive),> 100 µM (inactive),> 100 µM (inactive)
COCN1C(=O)[C@@H]2CCCN2C(=O)c2ccc(N)cc21,> 100 µM (inactive),> 100 µM (inactive),> 100 µM (inactive),> 100 µM (inactive),> 100 µM (inactive),> 100 µM (inactive),> 100,> 100 µM (inactive),> 100 µM (inactive),> 100 µM (inactive),> 100 µM (inactive),> 100 µM (inactive),> 100 µM (inactive),> 100 µM (inactive),> 100 µM (inactive),> 100 µM (inactive),> 100 µM (inactive),> 100 µM (inactive),> 100 µM (inactive)
CC(C)(C)c1cc(C(CO)OCCOCCO)cc(C(C)(C)C)c1O (stereo not given),> 100 µM (inactive),> 100 µM (inactive),> 100 µM (inactive),> 100 µM (inactive),> 100 µM (inactive),> 100 µM (inactive),> 100,> 100 µM (inactive),> 100 µM (inactive),> 100 µM (inactive),> 100 µM (inactive),> 100 µM (inactive),> 100 µM (inactive),> 100 µM (inactive),> 100 µM (inactive),> 100 µM (inactive),> 100 µM (inactive),> 100 µM (inactive),> 100 µM (inactive)
Cn1c(-c2ccccc2)cc(-c2cccs2)c1-c1ccsc1,> 100 µM (inactive),> 100 µM (inactive),> 100 µM (inactive),> 100 µM (inactive),> 100 µM (inactive),> 100 µM (inactive),> 100,> 100 µM (inactive),> 100 µM (inactive),> 100 µM (inactive),47.4 µM (inactive),> 100 µM (inactive),> 100 µM (inactive),64.1 µM (inactive),> 100 µM (inactive),> 100 µM (inactive),> 100 µM (inactive),> 100 µM (inactive),> 100 µM (inactive)
CSc1c(C#N)c2n(c3ccccc13)c1ccccc1[n+]2C,21 µM (inactive),24.1 µM (inactive),18.2 µM (inactive),16 µM (inactive),29.2 µM (inactive),19.1 µM (inactive),33.4,23.1 µM (inactive),30.5 µM (inactive),29.3 µM (inactive),35.6 µM (inactive),20.7 µM (inactive),20.9 µM (inactive),17.3 µM (inactive),11.9 µM (inactive),18.2 µM (inactive),21.1 µM (inactive),24.6 µM (inactive),19.7 µM (inactive)
COc1ccc2oc(S(=O)(=O)N3CC(CCl)c4ccc(N)cc43)cc2c1 (stereo not given),1.48 µM (inactive),0.0662 µM (active),0.12 µM (active),0.0385 µM (active),0.0767 µM (active),0.084 µM (active),0.023,0.565 µM (active),0.0161 µM (active),0.0393 µM (active),0.0253 µM (active),2.01 µM (inactive),0.0113 µM (active),0.0482 µM (active),0.019 µM (active),0.119 µM (active),46.8 µM (inactive),0.0429 µM (active),0.766 µM (active)
Cc1ccc(/C=C2\CN(C)CC3=C2OC(N)=C(C#N)C3c2ccc(C)cc2)cc1 (stereo not given),16 µM (inactive),14.4 µM (inactive),18.8 µM (inactive),4.2 µM (inactive),17.9 µM (inactive),17.1 µM (inactive),14.1,22.7 µM (inactive),46.3 µM (inactive),20.6 µM (inactive),18 µM (inactive),> 38.5 µM (inactive),15.8 µM (inactive),9.98 µM (inactive),25.9 µM (inactive),17.3 µM (inactive),31.5 µM (inactive),34.7 µM (inactive),18.8 µM (inactive)
O=C1c2ccccc2C(=O)c2nn(N=P(CP(=Nn3nc4c(n3)C(=O)c3ccccc3C4=O)(c3ccccc3)c3ccccc3)(c3ccccc3)c3ccccc3)nc21,> 100 µM (inactive),> 100 µM (inactive),> 100 µM (inactive),> 100 µM (inactive),> 100 µM (inactive),> 100 µM (inactive),> 100,> 100 µM (inactive),> 100 µM (inactive),> 100 µM (inactive),> 100 µM (inactive),> 100 µM (inactive),> 100 µM (inactive),> 100 µM (inactive),> 100 µM (inactive),> 100 µM (inactive),> 100 µM (inactive),> 100 µM (inactive),> 100 µM (inactive)
